Results taken from patent publication US20260184663A1, “INDENE COMPOUNDS, PHARMACEUTICAL COMPOSITIONS THEREOF, AND THEIR THERAPEUTIC APPLICATIONS” (NucMito Pharmaceuticals co. Ltd., priority 2022, published 2026).

Columns and labels:
Assay type in all cases: cell-based
HepG2 (liver cancer) = test: Antiproliferative activity (CCK-8 cell viability), HepG2; conditions: Homo sapiens, 72 h, read-out: Antiproliferative activity in cancerous cells, HepG2 (inhibition of cell growth); for inhibition at 3.3 µM: Compound concentration: 3.3 μM; for inhibition at 10 µM: Compound concentration: 10 μM; for inhibition at 30 µM: Compound concentration: 30 μM
How it was run: (§1)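 Cells grown in DMEM (HepG2, SW480), MEM (HeLa) or F-12K (A549), each with 10% FBS, then exposed to compound at 3.3, 10 or 30 μM for 72 h at 37 °C. CCK-8 absorbance at 450 nm; viability expressed as percent of DMSO-treated cells, graded as growth inhibition bands.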

HeLa (cervical cancer) = test: Antiproliferative activity (CCK-8 cell viability), HeLa; conditions: Homo sapiens, 72 h, read-out: Antiproliferative activity in cancerous cells, HELA (inhibition of cell growth); for inhibition at 3.3 µM: Compound concentration: 3.3 μM; for inhibition at 10 µM: Compound concentration: 10 μM; for inhibition at 30 µM: Compound concentration: 30 μM
How it was run: as §1

[1] = tested on: A431 (epidermoid carcinoma); test: Antiproliferative activity (CCK-8 cell viability), A431; conditions: Homo sapiens, 72 h, read-out: Antiproliferative activity in cancerous cells, A431 (inhibition of cell growth); for inhibition at 3.3 µM: A-431, Compound concentration: 3.3 μM; for inhibition at 10 µM: A-431, Compound concentration: 10 μM; for inhibition at 30 µM: A-431, Compound concentration: 30 μM
How it was run: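 A431 epidermoid carcinoma cells grown in DMEM with 10% FBS were plated at 2,000-5,000 cells/well in 96-well plates. After attachment they were exposed to compound at 3.3 μM, 10 μM, or 30 μM for 72 h at 37° C. Viability was then assessed by CCK-8 against DMSO vehicle-treated wells.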

[2] = tested on: A549 (lung adenocarcinoma); test: Antiproliferative activity (CCK-8 cell viability), A549; conditions: Homo sapiens, 72 h, read-out: Antiproliferative activity in cancerous cells, A549 (inhibition of cell growth); for inhibition at 3.3 µM: Compound concentration: 3.3 μM; for inhibition at 10 µM: Compound concentration: 10 μM; for inhibition at 30 µM: Compound concentration: 30 μM
How it was run: as §1

SW480 (colon cancer) = test: Antiproliferative activity (CCK-8 cell viability), SW480; conditions: Homo sapiens, 72 h, read-out: Antiproliferative activity in cancerous cells, SW480 (inhibition of cell growth); for inhibition at 3.3 µM: Compound concentration: 3.3 μM; for inhibition at 10 µM: Compound concentration: 10 μM; for inhibition at 30 µM: Compound concentration: 30 μM
How it was run: as §1

[3] = tested on: B16F10 (malignant melanoma); test: Antiproliferative activity (CCK-8 cell viability), B16F10; conditions: Mus musculus, 72 h, read-out: Antiproliferative activity in cancerous cells, B16F10 (inhibition of cell growth); for inhibition at 3.3 µM: B16-F10, Compound concentration: 3.3 μM; for inhibition at 10 µM: B16-F10, Compound concentration: 10 μM; for inhibition at 30 µM: B16-F10, Compound concentration: 30 μM
How it was run: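 B16F10 melanoma cells grown in DMEM with 10% FBS were plated in 96-well plates at 2,000-5,000 cells/well. After attachment they were exposed to compound in medium for 72 h at 37° C. CCK-8 solution (10 μL) was then added, and after 4 h at 37° C absorbance was read at 450 nm.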

[4] = tested on: MDA-MB-231 (breast cancer); test: Antiproliferative activity (CCK-8 cell viability), MDA-MB-231; conditions: Homo sapiens, 72 h, read-out: Antiproliferative activity in cancerous cells, MDA-MB-231 (inhibition of cell growth); for inhibition at 3.3 µM: Compound concentration: 3.3 μM; for inhibition at 10 µM: Compound concentration: 10 μM; for inhibition at 30 µM: Compound concentration: 30 μM
How it was run: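 MDA-MB-231 breast cancer cells, grown in DMEM with 10% FBS, were plated in 96-well plates at 2,000-5,000 cells/well. Once attached, they were exposed to compound and incubated at 37° C. for 72 h. Viability was then measured with CCK-8 (10 μL per well, 4 h at 37° C.) by absorbance at 450 nm, relative to DMSO vehicle wells.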

Row | Compound | inhibition at 3.3 µM (HepG2 (liver cancer)) | inhibition at 10 µM (HepG2 (liver cancer)) | inhibition at 3.3 µM (HeLa (cervical cancer)) | inhibition at 10 µM (HeLa (cervical cancer)) | inhibition at 3.3 µM [1] | inhibition at 10 µM [1] | inhibition at 3.3 µM [2] | inhibition at 10 µM [2] | inhibition at 3.3 µM (SW480 (colon cancer)) | inhibition at 10 µM (SW480 (colon cancer)) | inhibition at 3.3 µM [3] | inhibition at 10 µM [3] | inhibition at 3.3 µM [4] | inhibition at 10 µM [4] | other results
1 | CC1=C(CC(=O)O)c2cc(F)ccc2/C1=C/c1ccc(Oc2ccc(Cl)c(Cl)c2)cc1 [E21, (E)-2-(1-(4-(3,4-Dichlorophenoxy)benzylidene)-5-fluoro-2-methyl-1H-inden-3-yl)acetic acid] | < 30% | ≥ 50% | ≥ 50% | ≥ 50% | ≥ 50% | ≥ 50% | 30 to 50% | ≥ 50% | 30 to 50% | ≥ 50% | < 30% | ≥ 50% | ≥ 50% | ≥ 50% | inhibition at 30 µM (HepG2 (liver cancer)): ≥ 50%; inhibition at 30 µM (HeLa (cervical cancer)): ≥ 50%; inhibition at 30 µM [1]: ≥ 50%; inhibition at 30 µM [2]: ≥ 50%; inhibition at 30 µM (SW480 (colon cancer)): ≥ 50%; inhibition at 30 µM [3]: ≥ 50%; inhibition at 30 µM [4]: ≥ 50%
2 | CC1=C(CC(=O)O)c2cc(F)ccc2/C1=C\c1ccc(CCOC2CCCCO2)cc1 (centres unmarked) [B47, (Z)-2-(5-Fluoro-2-methyl-1-(4-(2-((tetrahydro-2H-pyran-2-yl)oxy)ethyl)-benzylidene)-1H-inden-3-yl)acetic acid] | 30 to 50% | ≥ 50% | ≥ 50% | ≥ 50% | 30 to 50% | 30 to 50% | < 30% | ≥ 50% | < 30% | ≥ 50% | ≥ 50% | ≥ 50% | ≥ 50% | ≥ 50% | –
3 | COc1cc(Oc2ccc(/C=C3/C(C)=C(CC(=O)O)c4cc(F)ccc43)cc2)ccc1Cl [C71, (Z)-2-(1-(4-(4-Chloro-3-methoxyphenoxy)benzylidene)-5-fluoro-2-methyl-1H-inden-3-yl)acetic acid] | ≥ 50% | ≥ 50% | 30 to 50% | ≥ 50% | ≥ 50% | ≥ 50% | < 30% | 30 to 50% | < 30% | ≥ 50% | ≥ 50% | ≥ 50% | < 30% | 30 to 50% | –
4 | CC(=O)CC(=O)N1CCC(Oc2ccc(/C=C3/C(C)=C(CC(=O)O)c4cc(F)ccc43)cc2)CC1 [C203, (Z)-2-(5-Fluoro-2-methyl-1-(4-((1-(3-oxobutanoyl)piperidin-4-yl)oxy)-benzylidene)-1H-inden-3-yl)acetic acid] | < 30% | < 30% | < 30% | < 30% | ≥ 50% | ≥ 50% | 30 to 50% | < 30% | < 30% | < 30% | < 30% | ≥ 50% | < 30% | < 30% | inhibition at 30 µM (HepG2 (liver cancer)): < 30%; inhibition at 30 µM (HeLa (cervical cancer)): < 30%; inhibition at 30 µM [1]: ≥ 50%; inhibition at 30 µM [2]: < 30%; inhibition at 30 µM (SW480 (colon cancer)): < 30%; inhibition at 30 µM [3]: ≥ 50%; inhibition at 30 µM [4]: < 30%
5 | CC1=C(CC(=O)O)c2cc(Cl)ccc2/C1=C\c1ccc(COCc2ccc(Cl)cc2)cc1 [B115, (Z)-2-(5-Chloro-1-(4-(((4-chlorobenzyl)oxy)methyl)benzylidene)-2-methyl-1H-inden-3-yl)acetic acid] | ≥ 50% | ≥ 50% | < 30% | ≥ 50% | ≥ 50% | ≥ 50% | 30 to 50% | ≥ 50% | < 30% | ≥ 50% | 30 to 50% | ≥ 50% | < 30% | < 30% | –
6 | COc1ccc(Oc2cccc(/C=C3/C(C)=C(CC(=O)O)c4cc(F)ccc43)c2)cc1Cl [C102, (Z)-2-(1-(3-(3-Chloro-4-methoxyphenoxy)benzylidene)-5-fluoro-2-methyl-1H-inden-3-yl)acetic acid] | ≥ 50% | ≥ 50% | < 30% | ≥ 50% | ≥ 50% | ≥ 50% | ≥ 50% | ≥ 50% | < 30% | ≥ 50% | ≥ 50% | ≥ 50% | ≥ 50% | ≥ 50% | –
7 | CC1=C(CC(=O)O)c2cc(Cl)ccc2/C1=C\c1ccc(CCCc2ccc(F)cc2)cc1 [B125, (Z)-2-(5-Chloro-1-(4-(3-(4-fluorophenyl)propyl)benzylidene)-2-methyl-1H-inden-3-yl)acetic acid] | ≥ 50% | ≥ 50% | ≥ 50% | ≥ 50% | ≥ 50% | ≥ 50% | < 30% | ≥ 50% | < 30% | ≥ 50% | ≥ 50% | ≥ 50% | 30 to 50% | ≥ 50% | –
8 | CC1=C(CC(=O)O)c2cc(F)ccc2/C1=C\c1ccc(Oc2ccc(Cl)cc2)cc1O [C80, (Z)-2-(1-(4-(4-Chlorophenoxy)-2-hydroxybenzylidene)-5-fluoro-2-methyl-1H-inden-3-yl)acetic acid] | < 30% | ≥ 50% | < 30% | ≥ 50% | 30 to 50% | ≥ 50% | 30 to 50% | ≥ 50% | < 30% | ≥ 50% | 30 to 50% | ≥ 50% | ≥ 50% | ≥ 50% | –
9 | CC1=C(CC(=O)O)c2cc(F)ccc2/C1=C\c1ccc(Oc2ccc(F)cc2)cc1Cl [C50, (Z)-2-(1-(2-Chloro-4-(4-fluorophenoxy)benzylidene)-5-fluoro-2-methyl-1H-inden-3-yl)acetic acid] | < 30% | ≥ 50% | 30 to 50% | ≥ 50% | ≥ 50% | ≥ 50% | < 30% | ≥ 50% | 30 to 50% | ≥ 50% | < 30% | ≥ 50% | < 30% | ≥ 50% | –
